Test results as given in ChEMBL document CHEMBL1127113, “Diaryl ether/carboxylic acid derivatives of LY255283: Receptor antagonists of leukotriene B4” (Bioorg Med Chem Lett, 1993).
pIC50: −log10 of the molar value.

What was measured:
Leukotriene B4 receptor = Leukotriene B4 receptor (Homo sapiens, UniProt Q9NPC1+Q15722); assay: Inhibition of specific binding of [3H]LTB4 to LTB4 receptor in human neutrophils; format: protein assay
[1] = biological target: Leukotriene B4 receptor (Cavia porcellus); assay: Inhibition of specific binding of [3H]-LTB4 to LTB4 receptor in guinea pig lung membranes
Homo sapiens = species on record: Homo sapiens; assay: The compound was evaluated for its ability to inhibit LTB4-induced chemotaxis of human neutrophils; format: functional

| SMILES | IC50 (Leukotriene B4 receptor) | Ki [1] | pIC50 (Homo sapiens) |
| --- | --- | --- | --- |
| CCc1cc(C(C)=O)c(O)cc1OCCCOc1ccc(Oc2ccc(C(=O)[O-])cc2)cc1.[Na+] | 0.19 µM | 0.09 µM | – |
| CCCc1cc(Oc2ccc(C(=O)[O-])cc2)ccc1OCCCOc1cc(O)c(C(C)=O)cc1CC.[Na+] | 0.33 µM | 1.2 µM | – |
| CCCc1c(OCCCOc2cc(O)c(C(C)=O)cc2CC)cccc1Oc1ccccc1C(=O)[O-].[Na+] | 0.024 µM | 0.039 µM | 6.10 |
| CCCc1cc(Oc2cccc(C(=O)[O-])c2)ccc1OCCCOc1cc(O)c(C(C)=O)cc1CC.[Na+] | 0.16 µM | 0.256 µM | – |

More lines, now with the values ahead:

| IC50 (Leukotriene B4 receptor) | Ki [1] | pIC50 (Homo sapiens) | SMILES |
| --- | --- | --- | --- |
| 0.29 µM | 0.13 µM | – | CCc1cc(C(C)=O)c(O)cc1OCCCOc1cccc(Oc2ccccc2C(=O)[O-])c1.[Na+] |
| 0.13 µM | 0.244 µM | 5.92 | CCCc1c(OCCCOc2cc(O)c(C(C)=O)cc2CC)cccc1OCc1ccccc1C(=O)[O-].[Na+] |
| 0.094 µM | 0.059 µM | 5.51 | CCCc1c(OCCCCOc2cc(O)c(C(C)=O)cc2CC)cccc1Oc1ccccc1C(=O)[O-].[Na+] |
| 0.46 µM | 0.14 µM | – | CCc1cc(C(C)=O)c(O)cc1OCCCOc1cccc(Oc2cccc(C(=O)[O-])c2)c1.[Na+] |
